Activity calls are given as the source filed them.
Legend:
Format in all cases: functional
[1] = molecular target: T1, Replicative DNA helicase DnaB (Mycobacterium tuberculosis, UniProt P9WMR3); assay: DnaB intein splicing inhibitors, dose response, biochemical, cell-free fluorescence (AID 449749)
T1 sequence (P9WMR3 whole entry): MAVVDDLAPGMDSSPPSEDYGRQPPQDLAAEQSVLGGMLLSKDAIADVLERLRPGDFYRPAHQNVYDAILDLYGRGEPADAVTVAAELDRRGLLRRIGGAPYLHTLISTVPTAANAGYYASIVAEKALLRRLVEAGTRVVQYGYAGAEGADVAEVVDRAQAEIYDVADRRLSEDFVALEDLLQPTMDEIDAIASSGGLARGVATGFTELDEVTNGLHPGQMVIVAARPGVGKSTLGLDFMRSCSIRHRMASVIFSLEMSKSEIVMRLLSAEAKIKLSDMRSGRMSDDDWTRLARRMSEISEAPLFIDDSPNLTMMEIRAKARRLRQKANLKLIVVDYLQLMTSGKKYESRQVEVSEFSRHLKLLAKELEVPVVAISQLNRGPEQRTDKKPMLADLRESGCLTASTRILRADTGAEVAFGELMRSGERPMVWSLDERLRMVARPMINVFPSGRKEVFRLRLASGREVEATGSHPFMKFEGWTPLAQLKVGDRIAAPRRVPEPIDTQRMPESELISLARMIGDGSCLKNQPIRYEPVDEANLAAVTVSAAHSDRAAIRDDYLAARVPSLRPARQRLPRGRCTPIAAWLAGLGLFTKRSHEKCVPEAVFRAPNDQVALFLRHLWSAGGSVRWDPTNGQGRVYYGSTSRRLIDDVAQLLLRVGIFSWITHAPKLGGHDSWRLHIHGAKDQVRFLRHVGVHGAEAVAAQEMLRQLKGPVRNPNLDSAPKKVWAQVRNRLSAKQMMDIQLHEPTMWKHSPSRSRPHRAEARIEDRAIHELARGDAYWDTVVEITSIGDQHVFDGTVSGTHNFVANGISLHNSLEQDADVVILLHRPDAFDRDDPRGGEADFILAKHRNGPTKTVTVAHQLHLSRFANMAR

[2] = molecular target: T2, Protein RecA (Mycobacterium tuberculosis, UniProt P9WHJ3); assay: Fluorescence Cell-Free Homogeneous Dose Retest to Identify Inhibitors of RecA-Intein Splicing Activity. [Related pubchem assays (depositor defined):AID2097, AID2223, AID489010, AID492950]
T2 sequence (P9WHJ3 whole entry): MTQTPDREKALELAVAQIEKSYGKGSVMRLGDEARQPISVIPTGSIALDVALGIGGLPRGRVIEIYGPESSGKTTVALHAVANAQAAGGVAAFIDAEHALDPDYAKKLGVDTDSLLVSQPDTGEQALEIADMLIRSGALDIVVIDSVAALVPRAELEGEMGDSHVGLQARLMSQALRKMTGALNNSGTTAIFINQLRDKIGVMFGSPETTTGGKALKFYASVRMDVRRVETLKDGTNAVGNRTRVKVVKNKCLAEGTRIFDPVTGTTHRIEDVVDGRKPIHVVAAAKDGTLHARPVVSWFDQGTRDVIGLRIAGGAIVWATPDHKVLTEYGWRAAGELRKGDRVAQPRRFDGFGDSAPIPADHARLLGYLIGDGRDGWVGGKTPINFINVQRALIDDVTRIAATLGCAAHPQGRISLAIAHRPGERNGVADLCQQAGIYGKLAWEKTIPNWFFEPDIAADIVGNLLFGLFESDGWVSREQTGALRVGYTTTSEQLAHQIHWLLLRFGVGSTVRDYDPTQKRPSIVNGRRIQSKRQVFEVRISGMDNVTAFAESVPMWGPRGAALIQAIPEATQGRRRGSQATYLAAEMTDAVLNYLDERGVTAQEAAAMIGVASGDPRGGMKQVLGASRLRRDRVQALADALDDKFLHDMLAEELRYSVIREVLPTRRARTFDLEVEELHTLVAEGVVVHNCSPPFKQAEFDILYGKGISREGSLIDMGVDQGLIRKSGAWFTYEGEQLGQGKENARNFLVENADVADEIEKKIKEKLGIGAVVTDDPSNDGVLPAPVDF

[3] = molecular target: T3, Apoptotic protease-activating factor 1 (Homo sapiens, UniProt O14727)
T3 sequence (O14727 whole entry): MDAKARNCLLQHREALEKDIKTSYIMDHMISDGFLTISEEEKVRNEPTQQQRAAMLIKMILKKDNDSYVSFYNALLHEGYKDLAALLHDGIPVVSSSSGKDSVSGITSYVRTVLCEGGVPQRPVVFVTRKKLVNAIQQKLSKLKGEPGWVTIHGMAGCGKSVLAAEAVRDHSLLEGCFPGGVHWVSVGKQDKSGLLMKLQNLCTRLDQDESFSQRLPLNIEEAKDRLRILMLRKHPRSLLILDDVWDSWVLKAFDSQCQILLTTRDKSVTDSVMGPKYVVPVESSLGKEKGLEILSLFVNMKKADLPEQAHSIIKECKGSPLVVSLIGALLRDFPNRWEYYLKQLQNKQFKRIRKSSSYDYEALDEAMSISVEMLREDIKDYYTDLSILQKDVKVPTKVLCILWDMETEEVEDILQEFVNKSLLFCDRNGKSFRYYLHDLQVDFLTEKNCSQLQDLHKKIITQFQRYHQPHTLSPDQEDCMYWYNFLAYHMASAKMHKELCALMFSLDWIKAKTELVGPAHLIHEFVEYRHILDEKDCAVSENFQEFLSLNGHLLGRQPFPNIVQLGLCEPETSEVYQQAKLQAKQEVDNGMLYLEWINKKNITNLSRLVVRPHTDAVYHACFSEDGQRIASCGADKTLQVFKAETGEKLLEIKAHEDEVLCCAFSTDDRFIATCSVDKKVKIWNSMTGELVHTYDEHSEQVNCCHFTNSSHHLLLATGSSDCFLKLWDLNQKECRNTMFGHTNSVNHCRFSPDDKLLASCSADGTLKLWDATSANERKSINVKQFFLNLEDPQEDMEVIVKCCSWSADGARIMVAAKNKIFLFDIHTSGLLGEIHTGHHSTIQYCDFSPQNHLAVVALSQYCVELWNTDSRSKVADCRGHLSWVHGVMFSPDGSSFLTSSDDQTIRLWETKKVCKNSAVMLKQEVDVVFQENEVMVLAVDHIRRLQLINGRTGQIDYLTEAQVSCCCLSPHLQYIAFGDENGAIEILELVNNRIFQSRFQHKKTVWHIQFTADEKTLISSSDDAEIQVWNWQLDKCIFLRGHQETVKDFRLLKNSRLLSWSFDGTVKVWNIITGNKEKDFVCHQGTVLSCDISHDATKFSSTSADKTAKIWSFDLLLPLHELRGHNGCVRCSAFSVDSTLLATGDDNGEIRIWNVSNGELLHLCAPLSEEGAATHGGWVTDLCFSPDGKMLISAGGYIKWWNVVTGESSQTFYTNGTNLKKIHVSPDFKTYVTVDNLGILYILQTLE

SMILES	AC50 [1]	EC50 [2]	IC50 [3]
COc1cc2c(cc1OC)-c1c(OC)c(OC)cc3c1C(C2)N(C)CC3 (centres undefined)	550 nM (active)	614 nM (active)	–
CCCCCCCCCCOC(=O)Cn1c(COc2cccc(OC)c2)[n+](C)c2ccccc21	4320 nM (active)	9700 nM (active)	10200 nM (active)
CCc1ccc(S(=O)(=O)/N=C2\C=C(Nc3cccc(C(=O)O)c3)C(=O)c3ccccc32)cc1	276 nM (active)	216 nM (active)	7070 nM (active)
COc1cc(OC)c(NC2=CC(=O)C(=O)c3ccccc32)cc1Cl	–	–	2120 nM (active)

Reference: ChEMBL document CHEMBL1201862, “PubChem BioAssay data set” (2004)
